# Experimental data taken from ChEMBL document CHEMBL3108755, “Dermacozines H-J isolated from a deep-sea strain of Dermacoccus abyssi from Mariana Trench sediments” (J Nat Prod, 2014).
# pIC50: −log10 of the molar value.
# Tested on: Radical scavenging activity
# Experiment: Antioxidant activity assessed as DPPH radical scavenging activity
# Assay type: functional
row,SMILES,pIC50
1,CC(=O)NC(CSc1ccc(C(N)=O)c2c1Nc1c(C(N)=O)cc(C(=O)c3ccccc3)cc1N2C)C(=O)O (stereo not given),4.71
2,CN1c2cc(C(=O)c3ccccc3)cc(C(=O)O)c2Nc2cccc(C(N)=O)c21,5.08
3,CN1c2cc(C=O)cc(C(=O)O)c2Nc2cccc(C(N)=O)c21,4.73
4,CN1c2cccc(C(N)=O)c2Nc2c(C(=O)c3ccccc3)ccc(C(N)=O)c21,4.46
5,O=C1O[C@H]([C@@H](O)CO)C(O)=C1O [ASCORBIC ACID],4.92
